Counter-ions that a name gives are not always drawn. Like-named read-outs stand apart in the source and are kept apart here.

The data set can be described thus: in vitro. The class given is in vitro ADME, human. To be noted: human, serum. An excerpt:
Table 4 lists the serum half-lives for several model compounds and two representative pharmaceutical agent-chemical modifier complexes using an in vitro assay system described in the Experimental section below. Of course, the serum half-lives will vary in vivo depending upon the age and health condition of the patient. Each complex comprises a model compound or a pharmaceutical agent, a spacer group, and a chemical modifier. Many of the model compounds utilize 4-nitrophenyl(ethanol, propanol, or cyclohexanol) or 4-nitrophenylethylamine as the "model" pharmaceutical agent. A more complete listing of serum half-lives may be found in the Experimental section below.
General procedure for serum hydrolysis of pharmaceutical agent-modifier complexes
Stock solutions (6 mM) of the pharmaceutical agent-modifier complexes were prepared in ethanol (by vortexing, sonication or warming at 37° C. if necessary). If required for solubility, a drop of dimethylsulfoxide, dimethylformamide or methanol may be added. (Acetonitrile cannot be used because it deactivates the serum enzymes.)
HPLC separation methods were established for each study by dilution of the above stock solution (6 μl) in acetonitrile (1 ml) to give a 36 μM solution. Samples (10 μl) were injected onto a Nucleosil 5C8 (250×4 mmID) and guard column (11×4 mm ID) and eluted with a mobile phase of approximately 65% HPLC grade water and 35% of a solution of 0.1% trifluoroacetic acid in acetonitrile, the exact proportions being adjusted in each case to give optimum separation and run times.
Freshly defrosted human serum (3 ml, Sigma) was warmed at 37° C. for five minutes and then 60 μl of the agent-modifier complex stock solution was added with vortexing. […] The aliquots were added to 800 μl of 2% zinc sulfate solution in a 1.5 ml disposable microcentrifuge tube, vortexed immediately and centrifuged at 14,000 RPM for 3 minutes. The supernatants (10 μl) were then injected onto the HPLC and peak areas were used to determine the % remaining. Serum blanks were prepared similarly by addition of serum to the zinc sulfate solution followed by centrifugation, and time=0 samples were also prepared by adding serum to the zinc sulfate solution followed by addition of the complex and separation by centrifugation. The time=0 samples, as well as the original stock solutions, were also used to study the stability of the complex in the absence of enzyme. Half-lives were calculated using the equation
by plotting time (x) vs. ln % remaining (y) to obtain the slope (m) and the y intercept (b).

Where [1] appears, read: Table 5, human serum, 37° C., read-out: Serum Half-life (converted).

Take `CC1OC(OC2C(O)CC(OC3C(O)CC(OC4CCC5(C)C(CCC6C5CC(O)C5(C)C(C7=CC(=O)OC7)CCC65O)C4)OC3C)OC2C)CC(O)C1OC(=O)CCC[N+](C)(C)C` (stereo not drawn) [digoxin-4'"-(4-trimethylamino)butyrate bromide]: the half-life (commonly the time needed for the level to fall by half in the phase considered) under setting [1] is 7 h.
`CC(=O)OC(CC(=O)OC1C(O)CC(OC2C(O)CC(OC3C(O)CC(OC4CCC5(C)C(CCC6C5CC(O)C5(C)C(C7=CC(=O)OC7)CCC65O)C4)OC3C)OC2C)OC1C)C[N+](C)(C)C` (stereo not drawn) [digoxin-4'"-(O-acetylcarnitinate) chloride salt]: under setting [1], the half-life was 0.0833 h.
For the compound `CCCCCCCCCCCCCCCC(=O)OC(CC(=O)OC1C(O)CC(OC2C(O)CC(OC3C(O)CC(OC4CCC5(C)C(CCC6C5CC(O)C5(C)C(C7=CC(=O)OC7)CCC65O)C4)OC3C)OC2C)OC1C)C[N+](C)(C)C` (stereo not drawn) [digoxin-4'"-(O-palmitoylcarnitinate) chloride salt], the half-life under setting [1] was 0.317 h.
Same read-out and setting: with `CC1OC(OC2C(O)CC(OC3C(O)CC(OC4CCC5(C)C(CCC6C5CC(O)C5(C)C(C7=CC(=O)OC7)CCC65O)C4)OC3C)OC2C)CC(O)C1OC(=O)OCC[N+](C)(C)C` (stereo not drawn) [digoxin-4'"-(choline chloride) carbonate ester] the figure was 0.0219 h.
On the same count and under the same terms, then `CC(CCCC(=O)OC1C(O)CC(OC2C(O)CC(OC3C(O)CC(OC4CCC5(C)C(CCC6C5CC(O)C5(C)C(C7=CC(=O)OC7)CCC65O)C4)OC3C)OC2C)OC1C)OC(=O)CCC[N+](C)(C)C` (stereo not drawn) [digoxin-4'"-[5-(4-trimethylaminobutyroyloxy)-hexanoate] bromide salt], with 14 h.
On the same count and under the same terms, with `CC1OC(OC2C(O)CC(OC3C(O)CC(OC4CCC5(C)C(CCC6C5CC(O)C5(C)C(C7=CC(=O)OC7)CCC65O)C4)OC3C)OC2C)CC(O)C1OC(=O)C1CCC[N+]1(C)C` (stereo not drawn) [digoxin-4'"-stachydrine ester, chloride salt] the figure was 0.085 h.
For `CC1OC(OC2CCC3(C)C(CCC4C3CC(OC(=O)CCC[N+](C)(C)C)C3(C)C(C5=CC(=O)OC5)CCC43O)C2)CC(O)C1OC1CC(O)C(OC2CC3OC(=O)OC3C(C)O2)C(C)O1` (stereo not drawn) [digoxin-12-(4-trimethylaminobutyrate)-3'",4'"-cyclic carbonate, bromide salt], the half-life under setting [1] was 96 h and the half-life (untitled table of digoxin derivatives (position/substituent), assay not given, read-out: Half Life (converted)) was 96 h.
With `CC1OC(OC2CCC3(C)C(CCC4C3CC(OC(=O)OC[N+](C)(C)C)C3(C)C(C5=CC(=O)OC5)CCC43O)C2)CC(O)C1OC1CC(O)C(OC2CC3OC(=O)OC3C(C)O2)C(C)O1` (stereo not drawn) [digoxin-12-(N,N,N-trimethylaminomethyl)-carbonate 3"',4'"-cyclic carbonate, chloride salt], under setting [1], the half-life was 0.7 h.
Still for that read-out and setting: then `CC1OC(OC2CCC3(C)C(CCC4C3CC(OC(=O)OCC[N+](C)(C)C)C3(C)C(C5=CC(=O)OC5)CCC43O)C2)CC(O)C1OC1CC(O)C(OC2CC3OC(=O)OC3C(C)O2)C(C)O1` (stereo not drawn) [digoxin-12-(choline carbonate)-3'",4'"-cyclic carbonate, bromide salt], with 29 h.
Take `C[C@H]1O[C@@H](O[C@H]2[C@@H](O)C[C@H](O[C@H]3[C@@H](O)C[C@H](O[C@H]4CC[C@@]5(C)[C@H](CC[C@@H]6[C@@H]5C[C@@H](OC(=O)OCCCCCCOC(=O)C[N+](C)(C)C)[C@]5(C)[C@@H](C7=CC(=O)OC7)CC[C@]65O)C4)O[C@@H]3C)O[C@@H]2C)C[C@@H]2OC(=O)O[C@@H]21` [digoxin-12-[1-(6-betainoyloxyhexyl)]carbonate-3"',4"'-cyclic carbonate, chloride salt]: the half-life under setting [1] is 470 h.
The same measure, in the same setting: with `CC1OC(OC2CCC3(C)C(CCC4C3CC(OC(=O)CCCN(C)C)C3(C)C(C5=CC(=O)OC5)CCC43O)C2)CC(O)C1OC1CC(O)C(OC2CC3OC(=O)OC3C(C)O2)C(C)O1` (stereo not drawn) [digoxin-12-[4-(N,N-dimethylamino)butyrate]-3"',4'"-cyclic carbonate, hydrochloride salt] the figure was 24 h.
Still for that read-out and setting: with `CC(CCCC(=O)OC1CC2C(CCC3CC(OC4CC(O)C(OC5CC(O)C(OC6CC7OC(=O)OC7C(C)O6)C(C)O5)C(C)O4)CCC32C)C2(O)CCC(C3=CC(=O)OC3)C12C)OC(=O)CCC[N+](C)(C)C` (stereo not drawn) [digoxin-12-[5-(4-trimethylaminobutyroyloxy)-hexanoate]-3'",4'"-cyclic carbonate] the figure was 504 h; with `CC1OC(OC2CCC3(C)C(CCC4C3CC(OC(=O)CCCCC[N+](C)(C)C)C3(C)C(C5=CC(=O)OC5)CCC43O)C2)CC(O)C1OC1CC(O)C(OC2CC3OC(=O)OC3C(C)O2)C(C)O1` (stereo not drawn) [digoxin-12-[6-(N,N,N-trimethylamino)hexanoate]-3'"-4'"-cyclic carbonate, bromide salt], 336 h.
The same measure, in the same setting: then `CC1OC(OC2CCC3(C)C(CCC4C3CC(OC(=O)CCCCCN(C)C)C3(C)C(C5=CC(=O)OC5)CCC43O)C2)CC(O)C1OC1CC(O)C(OC2CC3OC(=O)OC3C(C)O2)C(C)O1` (stereo not drawn) [digoxin-12-[6-(N,N-dimethylamino)hexanoate]-3'",4'"-cyclic carbonate], with 605 h.
For `C[C@H]1O[C@@H](O[C@H]2[C@@H](O)C[C@H](O[C@H]3[C@@H](O)C[C@H](O[C@H]4CC[C@@]5(C)[C@H](CC[C@@H]6[C@@H]5C[C@@H](OC(=O)OC[N+](C)(C)CCCCCC(=O)O)[C@]5(C)[C@@H](C7=CC(=O)OC7)CC[C@]65O)C4)O[C@@H]3C)O[C@@H]2C)C[C@@H]2OC(=O)O[C@@H]21` [digoxin-12-[N-(5-carboxypentyl)-N,N-dimethylaminomethyl carbonate]-3"',4"'-cyclic carbonate, bromide salt], under setting [1], the half-life was 0.8 h.
Take `C[C@H]1O[C@@H](O[C@H]2[C@@H](O)C[C@H](O[C@H]3[C@@H](O)C[C@H](O[C@H]4CC[C@@]5(C)[C@H](CC[C@@H]6[C@@H]5C[C@@H](OC(=O)c5cccnc5)[C@]5(C)[C@@H](C7=CC(=O)OC7)CC[C@]65O)C4)O[C@@H]3C)O[C@@H]2C)C[C@@H]2OC(=O)O[C@@H]21` [digoxin-12-nicotinate ester-3"',4"'-cyclic carbonate]: the half-life under setting [1] was 331 h.
On the same count and under the same terms, then `C[C@H]1O[C@@H](O[C@H]2[C@@H](O)C[C@H](O[C@H]3[C@@H](O)C[C@H](O[C@H]4CC[C@@]5(C)[C@H](CC[C@@H]6[C@@H]5C[C@@H](OC(=O)[C@@H]5CCC[N+]5(C)C)[C@]5(C)[C@@H](C7=CC(=O)OC7)CC[C@]65O)C4)O[C@@H]3C)O[C@@H]2C)C[C@@H]2OC(=O)O[C@@H]21` [digoxin-12-stachydrine ester-3"',4"'-cyclic carbonate, chloride salt], with 4.9 h; and `C[C@]12CCC(=O)C(OC(=O)OCC[N+](C)(C)C)=C1CC[C@@H]1[C@@H]2CC[C@]2(C)C(=O)CC[C@@H]12` [formestane-4-choline carbonate, bromide salt], with 0.433 h; and `CCCC[N+](C)(C)CCOC(=O)Cc1c(C)n(C(=O)c2ccc(Cl)cc2)c2ccc(OC)cc12` [indomethacin 2-(N-(1-butyl)-N,N-dimethylaminoethyl ester, bromide salt], with 0.0106 h.
On to `COc1ccc2c(c1)c(CC(=O)OCC[N+](C)(C)CCO)c(C)n2C(=O)c1ccc(Cl)cc1` [indomethacin 2-(N-(2-hydroxyethyl)-N,N-dimethyl) aminoethyl ester, bromide salt], for which the half-life under setting [1] is 0.0163 h.
Still for that read-out and setting: with `COc1ccc2c(c1)c(CC(=O)OCCNC(=O)CCCCC[N+](C)(C)C)c(C)n2C(=O)c1ccc(Cl)cc1` [indomethacin 2-[N-(6'-N',N',N'-trimethylamino)-hexanamido]ethyl ester, iodide salt] the figure was 22.6 h; with `COc1ccc2c(c1)c(CC(=O)OCCNC(=O)CCCCCN(C)C)c(C)n2C(=O)c1ccc(Cl)cc1` [indomethacin 2-[N-(6'-N',N'-dimethylamino)hexanamido]ethyl ester], 13.6 h; with `COc1ccc2c(c1)c(CC(=O)OCCN(C)C(=O)CCCCC[N+](C)(C)C)c(C)n2C(=O)c1ccc(Cl)cc1` [indomethacin 2-[N-methyl-N-(6'-N',N',N'-trimethyl-amino)hexanamido]ethyl ester, iodide salt], 3.4 h.
With `COc1ccc2c(c1)c(CC(=O)OCCN(C)C(=O)CCCCCN(C)C)c(C)n2C(=O)c1ccc(Cl)cc1` [indomethacin 2-[N-methyl-N-(6'-N',N'-dimethylamino)hexanamido]ethyl ester], under setting [1], the half-life is 0.225 h.
For the compound `COc1ccc2c(c1)c(CC(=O)OCOC(=O)CCCCCNC(=O)C[C@H](C[N+](C)(C)C)OC(C)=O)c(C)n2C(=O)c1ccc(Cl)cc1` [indomethacin 6-(O-acetyl-L-carnitinamido)hexanoyloxymethyl ester, chloride salt], under setting [1], the half-life was 0.5 h.
Same read-out and setting: then `CCN(CC)C(=O)COC(=O)Cc1c(C)n(C(=O)c2ccc(Cl)cc2)c2ccc(OC)cc12` [indomethacin (N,N-diethylglycolamide) ester], with 0.38 h.

(Values after patent US5607691A, “Compositions and methods for enhanced drug delivery” (priority 1995, dated 1997).)
